{"source": "patent US20120328526A1", "about": "“Modulation of Nad+ Activity in Neuropathophysiological Conditions and Uses Thereof” (University of Maryland, Baltimore, priority 2011, published 2012)", "key": {"[1]": {"molecular_target": "T1, CD38 (Mus musculus, UniProt P56528)", "T1 construct": "Addition of isolated brain mitochondria into medium containing 1-etheno-NAD (eNAD) results in generation of fluorescent product; from tissue; host or cells: isolated brain mitochondria", "T1 sequence (P56528 1-304)": "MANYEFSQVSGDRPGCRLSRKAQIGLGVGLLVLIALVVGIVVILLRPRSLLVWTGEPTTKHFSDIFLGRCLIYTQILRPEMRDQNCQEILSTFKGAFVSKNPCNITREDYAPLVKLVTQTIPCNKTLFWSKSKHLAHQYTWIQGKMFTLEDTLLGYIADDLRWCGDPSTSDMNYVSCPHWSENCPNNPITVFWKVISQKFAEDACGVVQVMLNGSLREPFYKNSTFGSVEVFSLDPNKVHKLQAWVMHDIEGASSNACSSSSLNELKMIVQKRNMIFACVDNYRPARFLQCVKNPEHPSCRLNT", "assay": "1-etheno-NAD hydrolysis by isolated brain mitochondria", "type": "biochemical", "details": "NMN 1 mM", "method": "Addition of isolated brain mitochondria into medium containing 1-etheno-NAD (eNAD) results in generation of fluorescent product. This NAD catabolism is inhibited by nicotinamide mononucleotide (1 mM). […] In brain tissue of sham-operated animals the CD38 expression is very low. […] This increase is observed particularly in non-neuronal cells that resemble post-ischemic microglia."}, "[2]": {"molecular_target": "T2, CD38 NAD^+ glycohydrolase (Mus musculus, UniProt P56528)", "T2 construct": "The individual brain regions were homogenized and centrifuged at low speed to sediment the unbroken cells and the nuclear fraction; from tissue; host or cells: mouse (C57BL/6) brain regions (cortex, striatum, hippocampal CA1, CA3-DG), low-speed supernatant of homogenate", "T2 sequence (P56528 1-304)": "T1 sequence (P56528 1-304)", "assay": "NAD+ glycohydrolase activity (1-etheno-NAD hydrolysis) in brain region homogenates", "type": "biochemical", "details": "NMN 1 mM; post-ischemic brain subregion supernatant", "method": "FIGS. 3A-3B show the effect of forebrain ischemia and nicotinamide mononucleotide administration on tissue NAD(H) levels. Mice were subjected to 10 min transient forebrain ischemia and allowed to recover for 24 h. After decapitation their brains were removed, the designated regions dissected and frozen in liquid nitrogen. One group of animals received nicotinamide mononucleotide at 1 hour of recovery. The NAD content was determined following perchloric acid extraction and utilized a coupled fluorometric cycling enzymatic assay (FIG. 3A). There is significant loss of NAD^+ in striatum, CA1, and DG regions. *p<0.05. […] Black: sham; white: ischemia; gray: NMN treatment. FIG. 3B: Effect of ischemia on CD38 activity. Brains of sham operated animals or animals subjected to 10 min of forebrain ischemia and 24 h of recovery were used for dissection of designated brain regions and homogenized. The CD38 enzyme activity was determined using 1-etheno-NAD that, when hydrolyzed by CD38, generates a fluorescent product. The rate of fluorescence increase corresponds to the CD38 enzyme activity. […]\nSince nicotinamide mononucleotide is inhibiting the CD38 NAD^+ glycohydrolase activity, the activity of CD38 in post-ischemic tissue was assessed. The NAD^+ glycohydrolase activity was measured by monitoring the enhancement in fluorescence emission caused by the hydrolysis of 1-etheno-NAD (eNAD) (9). […]"}}, "note": "“Also recorded” adds a separate entry of the source."}
{"compound": "NC(=O)c1ccc[n+]([C@@H]2O[C@H](COP(=O)([O-])O)[C@@H](O)[C@H]2O)c1", "note": "[nicotinamide mononucleotide]", "values": [{"measurement": "NAD catabolism (eNAD fluorescent product) by isolated brain mitochondria", "setting": "[1]", "value": "inhibited"}, {"measurement": "eNAD hydrolysis (NAD+ glycohydrolase activity) in brain tissue homogenate", "setting": "[2]", "value": "completely inhibited; also recorded: prevents tissue NAD^+ degradation"}]}
